# Reference: US7947280B2 (priority 2003, dated 2011)
# Several values for one entry are separate records, joined by “and”; a condition that tells them apart may be missing. Equal entries are not always repeated. Entries after “also recorded” stand apart in the source; their conditions may differ.
# Experiments:
# C57B1/6 mice = test system: C57B1/6 mice
# Method: Pressure-volume hemodynamics. Pressure-volume hemodynamics were assessed using the Aria System (Millar Instruments, Houston, Tex.). Male C57B1/6 mice aged 8-12 weeks (n=10) were anesthetized with 1-2% isoflurane in oxygen. The internal jugular vein was cannulated with PE tubing and a 10% albumin solution infused at 5 μl/min following a bolus of 150 μl over 5 minutes. After tracheotomy, a 19G cannula was inserted into the trachea and the animal was ventilated at a tidal volume of 200 μl at 100 breaths per minute (Harvard Apparatus, Holliston, Mass.). Mice were warmed throughout the procedure and constantly monitored for depth of anesthesia. Following an incision just dorsal to the xyphoid cartilage, the diaphragm was visualized from below, and after diaphragmatic incision, the left ventricular apex was visualized. The pressure-volume catheter was then inserted along the long axis of the left ventricle, from where it was adjusted to obtain rectangular shaped pressure-volume loops. Appropriate position was verified post mortem (FIG. 1, Panel D). […] Signals from the catheter were digitized using the Powerlab system (ADInstruments, Colorado Springs, Colo.) and stored for offline analysis using the PVAN software (Pressure-volume ANalysis, Millar Instruments, Houston, Tex.).
# Data Analysis. Data were analyzed using Student's t statistic (paired) or the repeated measures analysis of variance using the post hoc comparison of Fisher (NCSS 2002). Exact p values are reported for all comparisons.
# [1] = test system: Erk1/2 phosphorylation in RASM; conditions: AngII stimulated RASM
# [2] = test system: NFκB, NFAT, AP-1 and SRE reporter constructs; test: Luciferase reporter assays of AngII nuclear signaling in HEK-293 cells; type: cell-based
# Excerpt: cDNA Constructs APJ expression construct was purchased from cDNA.org. AT1R construct was obtained from Dr. Marc Caron. AT1R transcript was inserted into a pEGFP-N1 vector (Clonetech). The NF-kB and SRE luciferase reporter constructs were obtained from BD Biosciences.
# Cells were immediately lysed.
# C57B/16 mice = test: Magnetic resonance imaging after intraperitoneal apelin-12 injection; type: in vivo, mouse; conditions: post apelin-12 300 μg/kg intraperitoneal, one hour prior to scanning; n=9
# Method: Magnetic resonance imaging. […] Platinum needle ECG leads were inserted subcutaneously. Respiration was monitored by means of a pneumatic pillow sensor positioned against the abdomen. Mouse body temperature was maintained during scanning at 37° C. by a flow of heated air thermostatically controlled by a rectal temperature probe. Magnetic resonance images were acquired on a 4.7T Oxford magnet controlled by a Varian Inova console (Varian, Palo Alto, Calif.) using a transmit-receive, quadrature, volume coil with an inner diameter of 3.5 cm. Image acquisition was gated to respiration and to the ECG R wave (SA Instruments, Stony Brook, N.Y.). Coronal and sagittal scout images led to the acquisition of multiple contiguous 1 mm thick, short axis slices orthogonal to the interventricular septum. […] Planimetry measurements of end diastolic and end systolic dimension were derived offline from short axis views of the left ventricle at the level of the papillary muscles using ImageJ software (National Institutes of Health, Bethesda, Md.). Ejection fraction was calculated as [[…]. Data Analysis. […] Exact p values are reported for all comparisons.
# ApoE-KO mice [3] = test: AngII induced abdominal aortic aneurysm formation model; type: in vivo, mouse
# Method: Animals. Mice were maintained in temperature-controlled (20° C. to 22° C.) environment with a 12-hour light-dark cycle. Sterile water and standard chow diet were available ad libitum. All mice were C57BL/6J ApoE-KO male mice (Jackson Laboratories, Bar Harbor, […].) between the ages of 8-12 weeks. […] Animal procedures were carried out in accordance with the Institutional Review Board Guidelines at Stanford University.
# Abdominal aortic aneurysm formation, sudden death and vein graft procedure. […] Abdominal aortic aneurysm was defined as ≧50% enlargement of the maximal abdominal aorta diameter. Mice that were found dead without any preceding signs of suffering were defined as sudden death.
# AT1R = molecular target: T1, AT1R (Rattus norvegicus, UniProt P25095); test: Competitive ligand binding with FAM-labeled AngII in HEK-293 cells; conditions: unlabeled ligand 100 nM; HEK-293 cells transfected with AT1R
# T1 construct: expressed in transfected cells; host or cells: HEK-293
# T1 sequence (P25095 1-359): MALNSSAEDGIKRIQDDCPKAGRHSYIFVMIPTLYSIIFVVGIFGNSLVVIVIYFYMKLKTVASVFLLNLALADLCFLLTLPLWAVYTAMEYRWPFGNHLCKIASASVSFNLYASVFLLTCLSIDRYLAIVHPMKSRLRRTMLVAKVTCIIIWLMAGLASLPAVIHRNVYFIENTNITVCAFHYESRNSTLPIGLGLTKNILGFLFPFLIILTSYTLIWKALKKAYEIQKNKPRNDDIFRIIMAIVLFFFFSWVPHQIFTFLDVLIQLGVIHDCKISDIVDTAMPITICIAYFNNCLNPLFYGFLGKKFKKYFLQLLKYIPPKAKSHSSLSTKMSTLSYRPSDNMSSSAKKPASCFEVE
# ApoE-KO mice [4] = test: Atherosclerotic lesion analysis in ApoE-KO mice; type: in vivo, mouse; conditions: for reduction of total lesion burden: co-infusion of Apelin 2 mg/kg/day with AngII 1.4 mg/kg/day
# Method: Animals. Mice were maintained in temperature-controlled (20° C. to 22° C.) environment with a 12-hour light-dark cycle. […] All mice were C57BL/6J ApoE-KO male mice (Jackson Laboratories, Bar Harbor, […].) between the ages of 8-12 weeks. […] Animal procedures were carried out in accordance with the Institutional Review Board Guidelines at Stanford University.
# Tissue preparation, histology and lesion quantification. Mice were euthanized 28 days following implantation of osmotic mini-pumps. The thoracic cage was removed and the animal perfused with phosphate buffered saline solution (PBS) for 2 minutes. The entire aorta and vein graft were exposed and the periadventitial tissue and scar tissue dissected and removed. Subsequently mice were perfusion fixed in situ with 4% phosphate-buffered paraformaldehyde. In some animals aorta and lung were removed fresh for biochemical assays.
# Atherosclerotic Lesion Analysis Atherosclerosis lesion area was determined as described previously. Briefly, the arterial tree was perfused with PBS (pH 7.3) and then perfusion fixed with phosphate-buffered paraformaldehyde (3%, pH 7.3). The heart and full length of the aorta-to-iliac bifurcation was exposed and dissected carefully from any surrounding tissues. Aortas were then opened along the ventral midline and dissected free of the animal and pinned out flat, intimal side up, onto black wax. Aortic images were captured with a digital camera (DMC1) mounted on a Leica MZ6 stereomicroscope and analyzed using Fovea Pro (Reindeer Graphics, Asheville, N.C.). Percent lesion area was calculated as total lesion area divided by total surface area.
# [5] = post 100 nM Apelin-12 infused at 5 μl/min for 20 minutes
substance,measurement,setting,value
apelin,Time constants of relaxation,C57B1/6 mice; after apelin infusion,not different
same,slope and intercept of linear fit of end diastolic pressure-volume relationship,C57B1/6 mice; after apelin infusion,not different
same,Arterial elastance,C57B1/6 mice; following apelin infusion,did not change significantly
same,dP/dtmax,C57B1/6 mice; following apelin infusion,did not change
same,end systolic pressure,C57B1/6 mice; following apelin infusion,reduced
same,EDV mean,C57B1/6 mice; [5],26.2
same,Emax (time varying elastance),C57B1/6 mice; [5],12.7±3.1 and 12.7
same,HR mean,C57B1/6 mice; [5],353
same,PRSW intercept mean,C57B1/6 mice; [5],11.3
same,LV end diastolic volume,C57B1/6 mice; post apelin infusion,26.2±5.9 RVU
same,constant k1 of monoexponential fit LVEDP=k1*exp(k2*LVEDV),C57B1/6 mice; post apelin infusion,0.111±0.002
same,exponential k2 of monoexponential fit LVEDP=k1*exp(k2*LVEDV),C57B1/6 mice; post apelin infusion,0.69±0.41
same,heart rate,"C57B1/6 mice; post apelin infusion, invasive study",353±33 bpm
same,Erk1/2 phosphorylation,[1],decreased
same,NFκB reporter activation stimulated by TNF-α and H2O2,[2]; apelin treatment,In neither case did apelin diminish transcription; also recorded: not affected
same,AngII induced increase in reporter transcription,[2]; cells also treated with apelin,abrogated; also recorded: decreased activation
same,Ejection fraction,C57B/16 mice,67.7±1.6%
same,heart rate (inverse of R-R interval of electrocardiogram),C57B/16 mice,559±19 beats per minute
same,left ventricular end diastolic area,C57B/16 mice,0.104±0.005 cm2
same,animals with aneurysm formation,ApoE-KO mice [3]; AngII plus apelin treatment,1/12
same,incidence of AAA formation,ApoE-KO mice [3]; apelin added to AngII infused mice,8%
same,incidence of AAA formation within 4 weeks,ApoE-KO mice [3]; single agent infusion,did not observe AAA formation
same,competition for binding of FAM-AngII (10 nM) to AT1R,AT1R,did not compete; also recorded: could not compete; also recorded: does not compete
same,reduction in aortic root atherosclerotic burden vs saline treated controls (trend),"ApoE-KO mice [4]; apelin 2 mg/kg/day, 4 weeks",25%
same,reduction of total lesion burden,ApoE-KO mice [4]; 4 weeks,mitigated
same,reduction of total lesion burden,"ApoE-KO mice [4]; 4 weeks, listed as Apelin",75%
same,progression of atherosclerosis in aortic root (FIG. 17),ApoE-KO mice [4]; osmotic minipump during high fat diet exposure,do not alter
